“Also recorded” adds a separate entry of the source.
Tests used:
ΔF508-CFTR [1] = experiment: Ussing chamber chloride efflux; type: cell-based, human
CFBE-ΔF cells = experiment: peptide uptake by fluorescence microscopy; settings: BioPORTER delivery, fluorescence microscopy (Figure S1)
ΔF508-CFTR [2] = experiment: Ussing chamber chloride efflux, residual ΔISC after CHX; type: cell-based, human
CAL PDZ domain (CALP) = experiment: NMR HSQC binding-site mapping on 15N-CALP; settings: 15N-CALP HSQC
ΔF508-CFTR [3] = type: cell-based, human; settings: surface biotinylation and Western blotting; p = 0.35, n = 14

Substance: AALKEETEEEVQDTRL [CFTR16]
- increase in ΔISC (ΔF508-CFTR [1]; absence of CHX, relative to the scrambled control (Figure 5)): did not significantly increase

Substance: F*-SPTINSAIWR [F*-SCR, reference compound]
- peptide uptake (CFBE-ΔF cells): confirmed
- shift in chloride efflux (ΔISC) compared to untreated cells (ΔF508-CFTR [1]; CFBE-ΔF polarized monolayers, 37 °C, peptide/BioPORTER (500 μM), compared to untreated cells): ≤ 4%
- residual ΔISC, % of baseline (ΔF508-CFTR [2]; 2 h CHX exposure, % of 0 h starting value, n = 9): 60%

Substance: ANSRWPTSII [iCAL36]
- mode of binding / binding site on CALP (CAL PDZ domain (CALP); 800 μM iCAL36, normalized chemical shift perturbation Δ ≥ 0.15): competitive inhibitor
- additional contacts compared to CFTR8 (CAL PDZ domain (CALP); compared to the CFTR8 octamer, listed as iCAL36_10): extends beyond that of CFTR8; also recorded: makes additional contacts at the distal end of the peptide-binding groove
- effect on ΔF508-CFTR biogenesis/maturation (ΔF508-CFTR [1]; comparison of ΔISC increase in absence (26%) and presence (25%) of CHX): does not strongly affect biogenesis

Substance: F*-ANSRWPTSII [F*-iCAL36]
- peptide uptake (CFBE-ΔF cells): confirmed
- increase in apical ΔF508-CFTR (significance, words) (ΔF508-CFTR [3]): not statistically significant
- residual ΔISC increase vs control monolayers (ΔF508-CFTR [2]; CHX 2 h, relative to control (F*-SCR) monolayers, p = 0.0005): 25%
